# Experimental data: patent US20040249129A1, “Novel lactic bacteria of the genus lactococcus lactis and use thereof for preserving food products” (priority 2001, published 2004)
# Where a SMILES comes first, the peptide text is derived from it. Bridges are numbered along the chain shown (N, C = ends). [ ]: non-standard residue; d: D form. The star is where a group is joined. Ileψ(thiazoline)Cys = CC[C@H](C)[C@H](N)C1=N[C@H](C(=O)*)CS1; dOrn = NCCC[C@@H](N)C(=O)O
# Test system: LLO strain
# Test: antibiogram of the strain LLO with antibiotic discs
# Assay type: cell-based, Lactococcus lactis
# Conditions: antibiotic discs on Mueller Hinton medium, 5% horse blood, pH 7.3; 48 hours at ambient temperature; streptomycin 10 U.I., kanamycin 30 U.I., gentamicin 10 U.I.
# Procedure: An antibiogram has been produced with the strain LLO to study its resistance to several antibiotics.
# The test is carried out on Mueller Hinton medium containing 1.7% agar and 5% horse blood, the pH is 7.3. The thickness of the agar in the Petri dishes is constant, it is 4 mm. It is a standardized medium according to the O.M.S. standards.
# The LLO strain is cultivated in an MRS broth, pH 6.5, for […] at 15° C. until there is obtained the stationary phase. The culture is diluted to 1/10th in a Mueller Hinton broth. The approximate concentration of the suspension is 10^6 bacteria/ml.
# The agar media are completely covered with 2 ml of the suspension. The excess liquid is withdrawn and the dishes are dried 10 minutes at ambient temperature. The antibiotic discs are deposited with the help of tongs (4 maximum). The dishes are incubated at ambient temperature for 48 hours.
row,Molecule,Result (antibiogram)
1,CC[C@H](C)[C@H](N)C1=N[C@H](C(=O)N[C@@H](CC(C)C)C(=O)N[C@H](CCC(=O)O)C(=O)N[C@H](C(=O)N[C@H]2CCCCNC(=O)[C@H](CC(N)=O)NC(=O)[C@@H](CC(=O)O)NC(=O)[C@H](Cc3cnc[nH]3)NC(=O)[C@@H](Cc3ccccc3)NC(=O)[C@H]([C@@H](C)CC)NC(=O)[C@@H](CCCN)NC2=O)[C@@H](C)CC)CS1 [Bacitracin] ({Ileψ(thiazoline)Cys}-L[dE]IK[dOrn]I[dF]H[dD]N; lactam 4-C),Noticeable
2,CC1(C)S[C@@H]2[C@H](NC(=O)[C@H](N)c3ccccc3)C(=O)N2[C@H]1C(=O)O [Ampicillin],Noticeable
3,CC1CCc2cc(F)cc3c(=O)c(C(=O)O)cn1c23 (stereo not drawn) [Flumequin],Resistant
4,CCN1CCN(c2cc3c(cc2F)c(=O)c(C(=O)O)cn3C2CC2)CC1 [Enrofloxacin],Noticeable
5,O=C(N[C@H](CO)[C@H](O)c1ccc([N+](=O)[O-])cc1)C(Cl)Cl [Chloramphenicol],Noticeable
6,CC[C@H]1OC(=O)[C@H](C)[C@@H](O[C@H]2C[C@@](C)(OC)[C@@H](O)[C@H](C)O2)[C@H](C)[C@@H](O[C@@H]2O[C@H](C)C[C@H](N(C)C)[C@H]2O)[C@](C)(O)C[C@@H](C)C(=O)[C@H](C)[C@@H](O)[C@]1(C)O [Erythromycin],Noticeable
7,c1ccoc1 [Furan],Resistant
8,C[C@H]1c2cccc(O)c2C(O)=C2C(=O)[C@]3(O)C(O)=C(C(N)=O)C(=O)[C@@H](N(C)C)[C@@H]3[C@@H](O)[C@@H]21 [Doxycyclin],Noticeable
9,CC1=C(C(=O)O)N2C(=O)[C@@H](NC(=O)[C@H](N)c3ccccc3)[C@H]2SC1 [Cefalexin],Noticeable
10,CN(C)[C@@H]1C(=O)C(C(N)=O)=C(O)[C@@]2(O)C(=O)C3=C(O)c4c(O)cccc4[C@@](C)(O)[C@H]3C[C@@H]12 [Tetracyclin],Noticeable
11,[H]/N=C(/N)N[C@H]1[C@H](O)[C@@H](O)[C@H](O[C@@H]2O[C@@H](C)[C@](O)(C=O)[C@H]2O[C@@H]2O[C@@H](CO)[C@H](O)[C@@H](O)[C@@H]2NC)[C@@H](N/C(N)=N\[H])[C@@H]1O [Streptomycin],Noticeable
12,Gentamicin,Noticeable
13,CC1(C)S[C@@H]2[C@H](NC(=O)Cc3ccccc3)C(=O)N2[C@H]1C(=O)O [Penicillin G],Noticeable
14,CCC[C@@H]1C[C@@H](C(=O)N[C@@H]([C@H]2O[C@H](SC)[C@H](O)[C@@H](O)[C@H]2O)[C@@H](C)O)N(C)C1 [Lincomycin],Noticeable
15,Spiramycin,Noticeable
